Results on 13 molecules are retold here after patent US11629143B2, “HipK4 inhibitors and uses thereof” (Vibliome Therapeutics, LLC, priority 2020, dated 2023).

Common to all, as to test: Kinase panel (mobility shift)
Common to all, as to assay type: biochemical

The target of one test is T1, MER (Homo sapiens, UniProt Q12866).
T1 sequence (Q12866 21-999): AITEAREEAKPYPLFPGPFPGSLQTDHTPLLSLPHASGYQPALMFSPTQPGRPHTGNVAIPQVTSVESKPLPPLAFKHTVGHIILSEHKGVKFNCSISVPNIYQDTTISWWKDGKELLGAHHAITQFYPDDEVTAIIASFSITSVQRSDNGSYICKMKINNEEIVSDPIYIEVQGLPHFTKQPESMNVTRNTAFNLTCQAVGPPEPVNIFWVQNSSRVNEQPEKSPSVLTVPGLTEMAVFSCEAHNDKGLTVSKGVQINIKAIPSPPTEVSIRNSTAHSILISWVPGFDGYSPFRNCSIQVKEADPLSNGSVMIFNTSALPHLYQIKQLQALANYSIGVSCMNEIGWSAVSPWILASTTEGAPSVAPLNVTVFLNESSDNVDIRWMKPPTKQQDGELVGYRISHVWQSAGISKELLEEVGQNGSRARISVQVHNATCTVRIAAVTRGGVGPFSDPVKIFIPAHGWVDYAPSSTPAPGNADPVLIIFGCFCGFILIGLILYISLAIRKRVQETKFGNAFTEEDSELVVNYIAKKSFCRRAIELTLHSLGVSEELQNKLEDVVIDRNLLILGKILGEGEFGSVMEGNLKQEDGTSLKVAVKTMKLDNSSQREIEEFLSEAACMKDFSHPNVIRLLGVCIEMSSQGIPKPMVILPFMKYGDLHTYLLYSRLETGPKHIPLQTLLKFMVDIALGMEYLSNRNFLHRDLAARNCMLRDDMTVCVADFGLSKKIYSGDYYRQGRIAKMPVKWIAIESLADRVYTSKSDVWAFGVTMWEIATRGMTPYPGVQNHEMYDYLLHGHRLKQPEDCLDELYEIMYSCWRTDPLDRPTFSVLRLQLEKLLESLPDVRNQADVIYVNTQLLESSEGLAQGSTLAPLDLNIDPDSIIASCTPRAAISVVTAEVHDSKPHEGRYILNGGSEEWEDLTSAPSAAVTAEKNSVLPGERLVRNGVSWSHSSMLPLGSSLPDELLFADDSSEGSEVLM
In outline: (§1)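 Microfluidic mobility-shift readout: product and substrate peaks are resolved by charge, and their fluorescence is compared to give enzyme activity. Enzyme, fluorescent substrate and test compound are reacted, then terminated before chip loading. Values are binned at 5 um: A 95% or greater, B 90%-94%, C 80%-89%.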

A further test concerns the target EPH-A5 (Homo sapiens, UniProt P54756). Conditions: at 5 um. Summed up: as §1
For another test, the target named is PDGFR-b (Homo sapiens, UniProt P09619). Summed up: as §1
The target of another test is T2, EPH-A6 (Homo sapiens, UniProt Q9UF33).
T2 sequence (Q9UF33 23-1036): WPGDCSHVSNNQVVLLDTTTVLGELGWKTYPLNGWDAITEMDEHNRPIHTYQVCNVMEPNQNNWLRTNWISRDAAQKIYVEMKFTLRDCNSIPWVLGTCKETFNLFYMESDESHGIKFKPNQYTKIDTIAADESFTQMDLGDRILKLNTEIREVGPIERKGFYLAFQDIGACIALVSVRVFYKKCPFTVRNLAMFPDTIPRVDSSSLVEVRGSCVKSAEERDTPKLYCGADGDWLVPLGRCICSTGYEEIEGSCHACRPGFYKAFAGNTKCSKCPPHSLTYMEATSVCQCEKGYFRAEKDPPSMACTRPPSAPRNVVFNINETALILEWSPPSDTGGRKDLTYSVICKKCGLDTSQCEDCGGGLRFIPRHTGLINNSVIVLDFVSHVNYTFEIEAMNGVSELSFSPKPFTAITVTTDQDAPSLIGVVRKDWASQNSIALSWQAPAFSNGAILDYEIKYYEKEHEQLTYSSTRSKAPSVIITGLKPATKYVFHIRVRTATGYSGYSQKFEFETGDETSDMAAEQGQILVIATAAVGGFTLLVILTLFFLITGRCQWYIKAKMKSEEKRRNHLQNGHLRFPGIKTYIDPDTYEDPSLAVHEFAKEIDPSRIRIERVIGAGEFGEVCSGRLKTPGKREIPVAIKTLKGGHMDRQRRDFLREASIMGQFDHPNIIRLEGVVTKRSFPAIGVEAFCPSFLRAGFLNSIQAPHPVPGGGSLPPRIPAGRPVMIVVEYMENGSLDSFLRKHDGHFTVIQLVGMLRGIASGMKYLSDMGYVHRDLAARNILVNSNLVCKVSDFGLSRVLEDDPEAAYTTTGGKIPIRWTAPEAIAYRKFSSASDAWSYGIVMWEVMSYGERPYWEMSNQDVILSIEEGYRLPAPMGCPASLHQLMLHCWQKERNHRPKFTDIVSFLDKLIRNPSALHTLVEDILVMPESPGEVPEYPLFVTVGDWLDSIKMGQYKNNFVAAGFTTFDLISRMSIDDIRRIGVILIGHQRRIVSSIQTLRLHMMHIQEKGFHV
Summed up:
as §1

A further test deals with RIPK2 (Homo sapiens, UniProt O43353). Summed up:
as §1

The target of a further test is SRC (Homo sapiens, UniProt P12931). In outline:
as §1

In another test the target is P38-a (Homo sapiens, UniProt Q16539). Conditions: at 5 um. Summed up: as §1
Chain of P38-a (Q16539 whole entry): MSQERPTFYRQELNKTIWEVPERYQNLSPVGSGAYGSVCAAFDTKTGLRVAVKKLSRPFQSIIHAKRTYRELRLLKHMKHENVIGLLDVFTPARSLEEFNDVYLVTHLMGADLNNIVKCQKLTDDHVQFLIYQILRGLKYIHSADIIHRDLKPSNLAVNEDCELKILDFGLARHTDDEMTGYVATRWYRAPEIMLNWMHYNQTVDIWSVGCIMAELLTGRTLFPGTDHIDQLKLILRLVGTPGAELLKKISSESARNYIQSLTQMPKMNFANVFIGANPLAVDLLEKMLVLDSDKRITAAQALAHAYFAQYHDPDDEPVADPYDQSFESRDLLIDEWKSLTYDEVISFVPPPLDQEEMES

Chain of EPH-A5 (P54756 25-1037, species assumed): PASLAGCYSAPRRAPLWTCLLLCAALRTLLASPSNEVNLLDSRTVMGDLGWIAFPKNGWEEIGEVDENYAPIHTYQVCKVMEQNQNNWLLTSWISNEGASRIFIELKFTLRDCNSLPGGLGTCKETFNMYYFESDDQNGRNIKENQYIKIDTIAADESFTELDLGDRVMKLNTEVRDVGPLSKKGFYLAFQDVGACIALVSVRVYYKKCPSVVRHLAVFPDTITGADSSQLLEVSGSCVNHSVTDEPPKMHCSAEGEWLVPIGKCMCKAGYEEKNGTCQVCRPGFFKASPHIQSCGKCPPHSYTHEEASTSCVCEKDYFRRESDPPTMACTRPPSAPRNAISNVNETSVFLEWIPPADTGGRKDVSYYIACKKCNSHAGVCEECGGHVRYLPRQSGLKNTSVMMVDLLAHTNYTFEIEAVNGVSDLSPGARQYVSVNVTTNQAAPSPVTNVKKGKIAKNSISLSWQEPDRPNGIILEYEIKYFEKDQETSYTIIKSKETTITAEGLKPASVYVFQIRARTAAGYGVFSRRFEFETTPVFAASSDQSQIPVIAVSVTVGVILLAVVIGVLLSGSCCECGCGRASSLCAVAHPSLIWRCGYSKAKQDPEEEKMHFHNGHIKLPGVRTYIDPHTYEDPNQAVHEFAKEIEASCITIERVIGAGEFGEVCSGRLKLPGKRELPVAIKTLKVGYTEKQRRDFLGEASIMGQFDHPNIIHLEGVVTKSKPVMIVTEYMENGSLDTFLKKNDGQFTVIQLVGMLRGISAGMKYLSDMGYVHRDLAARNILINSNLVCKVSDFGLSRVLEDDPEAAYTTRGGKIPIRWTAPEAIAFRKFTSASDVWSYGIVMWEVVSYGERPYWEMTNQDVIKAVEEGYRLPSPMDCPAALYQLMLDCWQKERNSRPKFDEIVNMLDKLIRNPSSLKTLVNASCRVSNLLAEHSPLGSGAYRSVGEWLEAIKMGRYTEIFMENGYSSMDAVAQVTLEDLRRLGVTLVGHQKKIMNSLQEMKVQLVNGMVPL
Chain of RIPK2 (O43353 whole entry, species assumed): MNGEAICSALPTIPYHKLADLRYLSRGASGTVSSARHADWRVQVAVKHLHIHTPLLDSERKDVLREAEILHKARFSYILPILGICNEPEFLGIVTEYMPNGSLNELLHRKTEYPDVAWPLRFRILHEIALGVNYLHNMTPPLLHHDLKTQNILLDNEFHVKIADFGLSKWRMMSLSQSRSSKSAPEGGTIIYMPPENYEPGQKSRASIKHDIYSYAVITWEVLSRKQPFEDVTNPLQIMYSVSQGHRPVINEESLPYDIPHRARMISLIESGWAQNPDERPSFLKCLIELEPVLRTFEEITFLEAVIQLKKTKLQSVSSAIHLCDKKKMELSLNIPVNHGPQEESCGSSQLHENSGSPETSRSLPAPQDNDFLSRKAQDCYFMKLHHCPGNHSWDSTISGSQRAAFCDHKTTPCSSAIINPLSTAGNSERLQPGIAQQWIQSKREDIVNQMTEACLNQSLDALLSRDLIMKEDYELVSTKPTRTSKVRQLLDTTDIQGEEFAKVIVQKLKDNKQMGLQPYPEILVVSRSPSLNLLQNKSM
Chain of PDGFR-b (P09619 33-1106, species assumed): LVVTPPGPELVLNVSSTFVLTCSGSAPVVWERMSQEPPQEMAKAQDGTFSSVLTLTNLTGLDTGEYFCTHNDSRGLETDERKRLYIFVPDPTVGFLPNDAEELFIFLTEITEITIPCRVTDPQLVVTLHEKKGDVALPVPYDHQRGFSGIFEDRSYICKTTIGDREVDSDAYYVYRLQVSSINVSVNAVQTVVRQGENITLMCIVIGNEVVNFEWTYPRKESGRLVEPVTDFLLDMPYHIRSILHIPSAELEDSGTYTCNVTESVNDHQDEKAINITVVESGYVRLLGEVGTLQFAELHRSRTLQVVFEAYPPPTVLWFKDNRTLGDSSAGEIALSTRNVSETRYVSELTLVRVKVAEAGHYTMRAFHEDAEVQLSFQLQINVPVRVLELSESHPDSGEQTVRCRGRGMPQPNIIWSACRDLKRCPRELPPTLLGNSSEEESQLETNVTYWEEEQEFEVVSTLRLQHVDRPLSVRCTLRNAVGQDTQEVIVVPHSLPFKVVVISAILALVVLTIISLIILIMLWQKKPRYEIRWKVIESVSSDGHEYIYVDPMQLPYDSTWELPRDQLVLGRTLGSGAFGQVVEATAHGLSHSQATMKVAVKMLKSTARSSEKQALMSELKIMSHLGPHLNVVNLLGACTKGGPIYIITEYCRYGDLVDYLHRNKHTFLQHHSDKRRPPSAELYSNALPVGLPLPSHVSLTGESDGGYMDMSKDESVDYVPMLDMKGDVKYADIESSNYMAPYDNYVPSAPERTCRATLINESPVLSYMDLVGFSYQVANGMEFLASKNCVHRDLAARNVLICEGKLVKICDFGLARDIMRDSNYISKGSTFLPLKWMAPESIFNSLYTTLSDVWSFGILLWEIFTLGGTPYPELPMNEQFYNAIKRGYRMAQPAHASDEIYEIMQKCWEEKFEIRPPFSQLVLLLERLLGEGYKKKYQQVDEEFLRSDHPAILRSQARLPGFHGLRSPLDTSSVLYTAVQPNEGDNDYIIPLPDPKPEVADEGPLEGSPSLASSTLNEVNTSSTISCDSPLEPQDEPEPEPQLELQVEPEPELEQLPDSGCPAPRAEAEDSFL
Chain of SRC (P12931 whole entry, species assumed): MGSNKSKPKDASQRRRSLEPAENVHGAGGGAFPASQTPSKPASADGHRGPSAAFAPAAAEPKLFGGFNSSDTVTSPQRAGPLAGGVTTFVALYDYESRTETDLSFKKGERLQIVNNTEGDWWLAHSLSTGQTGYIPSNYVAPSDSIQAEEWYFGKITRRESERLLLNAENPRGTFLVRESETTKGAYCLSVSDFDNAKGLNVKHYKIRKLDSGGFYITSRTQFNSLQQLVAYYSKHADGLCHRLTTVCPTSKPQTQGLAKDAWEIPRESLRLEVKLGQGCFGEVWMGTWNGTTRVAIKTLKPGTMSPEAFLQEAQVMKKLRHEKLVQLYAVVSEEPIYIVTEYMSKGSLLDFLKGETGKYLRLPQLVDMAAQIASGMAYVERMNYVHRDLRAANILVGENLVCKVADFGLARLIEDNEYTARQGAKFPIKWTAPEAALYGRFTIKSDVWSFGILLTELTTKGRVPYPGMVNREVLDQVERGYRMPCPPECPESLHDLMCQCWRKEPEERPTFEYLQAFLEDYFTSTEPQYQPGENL

Broadly, the inhibition is the share of the control response that was lost under treatment. As to `CNC(=O)c1cc(Oc2ccc(NC(=O)c3nc(NC)sc3-c3ccc(F)cc3C)cc2F)ccn1` [Compound 23], the inhibition at 5 µM on MER was 50 to 79%; at PDGFR-b, < 50%; on EPH-A6 it was 80 to 89%; on RIPK2 it was 80 to 89%; on SRC it was < 50%. Moreover, the “inhibition of kinase activity, EPH-A5” value at EPH-A5 is “D (category D for 50-79)”. Further, on P38-a, the “inhibition of kinase activity, P38-a” value is reported as “D (category D for 50-79)”.

As for `CNC(=O)c1cc(Oc2ccc(NC(=O)c3nc(OC)oc3-c3ccc(F)c(F)c3)cc2F)ccn1` [Compound 24], the inhibition at 5 µM is < 50% on MER; < 50% at PDGFR-b; 50 to 79% on EPH-A6; 50 to 79% at RIPK2; < 50% on SRC. Besides, the “inhibition of kinase activity, EPH-A5” value at EPH-A5 is “E (category E is less than 50%)”. On P38-a, the “inhibition of kinase activity, P38-a” value is “D (category D for 50-79)”.

Consider `CNC(=O)c1cc(Oc2ccc(NC(=O)c3nc(OC)oc3-c3ccc(F)s3)cc2F)ccn1` [Compound 25], for which the inhibition at 5 µM on MER was < 50%; on PDGFR-b, < 50%; at EPH-A6, 50 to 79%; at RIPK2, < 50%; on SRC, < 50%. Further, the “inhibition of kinase activity, EPH-A5” value on EPH-A5 was “E (category E is less than 50%)”. Further, on P38-a, the “inhibition of kinase activity, P38-a” value was “E (category E is less than 50%)”.

As for `CNC(=O)c1cc(Oc2ccc(NC(=O)c3nc(C4CC4)oc3-c3ccc(F)cc3)cc2F)ccn1` [Compound 26], the inhibition at 5 µM at MER is 80 to 89%; at PDGFR-b it was < 50%; at EPH-A6, 90 to 94%; at RIPK2, 80 to 89%; at SRC, 50 to 79%. Besides, at EPH-A5, the “inhibition of kinase activity, EPH-A5” value is “C (C=80%-89% at 5 um)”. Also, the “inhibition of kinase activity, P38-a” value at P38-a is on record as “B (B=90%-94% at 5 um)”.

On to `CSc1nc(C(=O)Nc2ccc(Oc3ccnc(C(=O)NC4CNC4)c3)c(F)c2)c(-c2ccc(F)s2)o1` [Compound 27], for which the inhibition at 5 µM at MER, at PDGFR-b, on EPH-A6, at RIPK2 and on SRC was < 50% in each case. On EPH-A5, the “inhibition of kinase activity, EPH-A5” value is “E (category E is less than 50%)”. Moreover, the “inhibition of kinase activity, P38-a” value on P38-a was “D (category D for 50-79)”.

As for `CSc1nc(C(=O)Nc2ccc(Oc3ccnc(C(=O)NC4COC4)c3)c(F)c2)c(-c2ccc(F)s2)o1` [Compound 28], the inhibition at 5 µM at MER, on PDGFR-b, on EPH-A6, at RIPK2 and at SRC was < 50% throughout. Besides, the “inhibition of kinase activity, EPH-A5” value on EPH-A5 was “E (category E is less than 50%)”. On P38-a, the “inhibition of kinase activity, P38-a” value is listed as “E (category E is less than 50%)”.

With `CSc1nc(C(=O)Nc2ccc(Oc3ccnc(C(=O)NC4CNC4)c3)c(F)c2)c(-c2ccc(F)cc2)o1` [Compound 29], the inhibition at 5 µM on MER is 50 to 79%; at PDGFR-b it was < 50%; on EPH-A6, 80 to 89%; at RIPK2, 80 to 89%; at SRC, < 50%. Besides, on EPH-A5, the “inhibition of kinase activity, EPH-A5” value is “E (category E is less than 50%)”. In addition, the “inhibition of kinase activity, P38-a” value on P38-a is recorded as “A (A=95% or greater at 5 um)”.

Consider `CNC(=O)c1cc(Oc2ccc(NC(=O)c3nc(COC)oc3-c3ccc(F)cc3)cc2F)ccn1` [Compound 30], for which the inhibition at 5 µM on MER was 80 to 89%; at PDGFR-b it was < 50%; on EPH-A6, ≥ 95%; on RIPK2 it was 80 to 89%; on SRC, 50 to 79%. Besides, the “inhibition of kinase activity, EPH-A5” value on EPH-A5 was “C (C=80%-89% at 5 um)”. Moreover, the “inhibition of kinase activity, P38-a” value on P38-a is reported as “C (C=80%-89% at 5 um)”.

On to `CSc1nc(C(=O)Nc2ccc(Oc3ccnc(C(=O)NC4COC4)c3)c(F)c2)c(-c2ccc(F)cc2)o1` [Compound 31], for which the inhibition at 5 µM on MER is < 50%; at PDGFR-b, < 50%; at EPH-A6, 80 to 89%; on RIPK2, 50 to 79%; at SRC it was < 50%. Also, the “inhibition of kinase activity, EPH-A5” value at EPH-A5 is on record as “E (category E is less than 50%)”. For the same molecule, the “inhibition of kinase activity, P38-a” value at P38-a is listed as “C (C=80%-89% at 5 um)”.

With `CNC(=O)c1cc(Oc2ccc(NC(=O)c3nc(OC4CC4)oc3-c3ccc(F)cc3)cc2F)ccn1` [Compound 32], the inhibition at 5 µM on MER was 80 to 89%; at PDGFR-b, < 50%; on EPH-A6, 90 to 94%; on RIPK2, 50 to 79%; on SRC, 50 to 79%. On EPH-A5, the “inhibition of kinase activity, EPH-A5” value was “D (category D for 50-79)”. For the same molecule, the “inhibition of kinase activity, P38-a” value on P38-a is recorded as “D (category D for 50-79)”.

Take `[2H]C([2H])([2H])NC(=O)c1cc(Oc2ccc(NC(=O)c3nc(SC)oc3-c3ccc(F)c(F)c3)cc2F)ccn1` [Compound 33]: the inhibition at 5 µM was < 50% at MER; < 50% at PDGFR-b; 50 to 79% on EPH-A6; 50 to 79% on RIPK2; < 50% at SRC. Further, on EPH-A5, the “inhibition of kinase activity, EPH-A5” value is given as “E (category E is less than 50%)”. At P38-a, the “inhibition of kinase activity, P38-a” value is recorded as “C (C=80%-89% at 5 um)”.

With `CNC(=O)c1cc(Oc2ccc(NC(=O)c3nc(SC(C)C)oc3-c3ccc(F)cc3)cc2F)ccn1` [Compound 34], the inhibition at 5 µM on MER is 90 to 94%; at PDGFR-b, < 50%; at EPH-A6, 90 to 94%; on RIPK2, 50 to 79%; at SRC it was 80 to 89%. Also, on EPH-A5, the “inhibition of kinase activity, EPH-A5” value is “C (C=80%-89% at 5 um)”. The “inhibition of kinase activity, P38-a” value at P38-a is reported as “C (C=80%-89% at 5 um)”.

As for `[2H]C([2H])([2H])NC(=O)c1cc(Oc2ccc(NC(=O)c3nc(SC)oc3-c3ccc(F)s3)cc2F)ccn1` [Compound 35], the inhibition at 5 µM on MER is < 50%; on PDGFR-b, < 50%; on EPH-A6 it was 50 to 79%; at RIPK2, 50 to 79%; on SRC it was < 50%. The “inhibition of kinase activity, EPH-A5” value at EPH-A5 is listed as “E (category E is less than 50%)”. Besides, on P38-a, the “inhibition of kinase activity, P38-a” value is recorded as “E (category E is less than 50%)”.
